Assay results reported in PMC11091220, “Metabolism-driven in vitro/in vivo disconnect of an oral ERɑ VHL-PROTAC” (Communications Biology, 2024).
Values joined by “and” are separate entries in the source; they are usually repeats but may differ in a detail not shown here. Identical values can stand only once.

Tests used:
[1] = biological target: T1, ERα (Homo sapiens, UniProt P03372); assay: Western blot analysis of ERα in MCF7 cells (dose response, MG132, VHL ligand and cpd 8 competition); type: cell-based
T1 construct: endogenous in cells; host or cells: MCF7 (also MCF7 engineered to express Cas9)
T1 sequence (P03372 1-595): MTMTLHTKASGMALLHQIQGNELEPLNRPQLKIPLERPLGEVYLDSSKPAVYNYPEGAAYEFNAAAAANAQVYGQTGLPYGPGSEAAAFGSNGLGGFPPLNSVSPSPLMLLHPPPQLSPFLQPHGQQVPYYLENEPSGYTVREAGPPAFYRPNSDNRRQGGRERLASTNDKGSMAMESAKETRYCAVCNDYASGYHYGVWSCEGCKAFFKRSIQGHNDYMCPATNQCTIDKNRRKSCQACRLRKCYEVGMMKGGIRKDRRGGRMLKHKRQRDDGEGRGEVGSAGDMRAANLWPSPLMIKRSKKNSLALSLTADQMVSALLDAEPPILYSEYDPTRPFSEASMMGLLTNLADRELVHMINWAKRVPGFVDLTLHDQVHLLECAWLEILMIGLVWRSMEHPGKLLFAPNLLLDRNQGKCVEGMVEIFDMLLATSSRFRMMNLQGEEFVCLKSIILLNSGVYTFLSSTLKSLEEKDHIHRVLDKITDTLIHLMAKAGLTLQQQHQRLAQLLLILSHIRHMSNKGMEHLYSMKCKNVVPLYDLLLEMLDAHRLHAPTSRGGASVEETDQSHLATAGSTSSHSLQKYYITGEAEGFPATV
Experimental: Fig. 2 AZ’6421 degrades ERα through a PROTAC mechanism of action. a Immunoblots for ERα and vinculin loading control. MCF7 cells were pre-treated with 10 µM MG132 or DMSO control for 1 h before being exposed to DMSO, AZ’6421, or fulvestrant, at the concentrations indicated, for a further 7 h. A representative immunoblot from two biological replicates is shown. b As in a but cells were pre-treated with 10 µM VHL ligand (Ac-(S,R,S)-AHPC) prior to addition of DMSO, AZ’6421 or fulvestrant. c MCF7 cells expressing BFP-Cas9 were reverse transfected with the crRNA:tracrRNA pool targeting VHL for 72 h prior to treatment with increasing concentrations of AZ’6421 for a further 24 h. Cells were then fixed, stained, and imaged to assess ERα and Cas9 expression. ERα levels in Cas9 positive cells were normalised to unedited cells (0) and ESR1 KO cells (-100). Data points are from three independent experiments, points in bold represent the mean. d Structure of AZ’6421 and the (S)-prolinol epimer, 7. e Concentration-response curves for AZ’6421 and 7. ERα levels in MCF7 cells were assessed using an immunofluorescence endpoint after 24 h exposure to compound. […] Data points are from 5 (AZ'6421) or 2 (Cpd 7) independent experiments with technical duplicates performed for each experiment, bold points represent the mean. All concentration-response curves were plotted using nonlinear regression analysis in GraphPad Prism.
Fig. 6 Assessment of the cause of the in vitro/in vivo disconnect. a CTC174 tumours were disaggregated into single cells, seeded in 6-well plates and dosed with increasing concentrations of AZ’6421 for 24 hours before being lysed. ERα levels were assessed by immunoblotting. ERɑ levels normalised to vinculin and expressed as % DMSO control are shown underneath the immunoblot. b Representative IHC images taken from sections of tumour treated with vehicle control or 100 mg/kg AZ’6421 for 4 days. Sections were stained with an antibody against ERα (Sp1, Ventana). c Schematic of potential sites of metabolism d Free plasma exposure of AZ’6421 and its metabolite 8 following 100 mg/kg dosing of AZ’6421. e Concentration-response curves for AZ’6421 and metabolite 8. ERα levels in MCF7 cells were assessed using an immunofluorescence endpoint after 24 h exposure to compound. […] Points in bold represent the mean. f Effect of metabolite 8 on ERα degradation in CTC174 cells cultured ex vivo. […] MCF7 cells were pre-treated with 10 µM cpd 8 or DMSO control for 1 h before being exposed to DMSO, AZ’6421 or fulvestrant, at the concentrations indicated, for a further 24 h. A representative immunoblot from two biological replicates is shown. TEXT PRINTED IN THE PICTURE: (a) AZ'6421: ERα % of DMSO control: 20.3 (1 nM); ERα % of DMSO control: 12.0 (10 nM); ERα % of DMSO control: 4.1 (30 nM); ERα % of DMSO control: 4.2 (100 nM); ERα % of DMSO control: 3.9 (300 nM); ERα % of DMSO control: 3.6 (1000 nM)
Cells were seeded into 12-well tissue culture-treated plates at 0.5 x 10^6 cells/well in phenol red-free RPMI containing 5% (v/v) charcoal-stripped FBS (F6765, Sigma) and left to adhere overnight. In experiments to detect agonism or for SILAC experiments, FBS was double stripped using activated charcoal. Cells were treated with compound or 0.1% DMSO vehicle control for the times indicated prior to being lysed in Pierce RIPA buffer (Thermo Scientific), supplemented with protease and phosphatase inhibitors. Expression levels of proteins were determined by standard western blotting techniques (BioRad 4%-12% Bis-Tris gels). Antibodies were diluted in 5% milk-PBS-Tween and protein levels were detected using Pierce WestDura chemiluminescent reagents followed by visualisation and quantification on a Syngene ChemiGenius Imager. Where blots were quantified, protein levels were normalised to beta-actin or vinculin control and expressed as % of vehicle control.

[2] = tested on: uterus; assay: Immature female rat model, uterine weight and histology; type: in vivo; details: for Uterine weight normalised to body weight (% vehicle): individual animals, listed as AZ'6421
Source text: Some endocrine therapies, such as tamoxifen, have been reported to display weak agonistic activity in the endometrium due to altered cofactor recruitment and subsequent activation of gene transcription. We therefore sought to test whether AZ’6421 was a complete antagonist or could act as a partial agonist, in both in vitro and in vivo models. […] Plasma samples were taken 4 hr after the 4th dose, at the same time as the uterus was weighed and sectioned for H&E staining. To further explore whether AZ’6421 may be acting as an agonist in vivo, morphological changes of the uterine were examined: uterine horns were formalin-fixed paraffin-embedded, stained with haematoxylin and eosin and then transverse sections of uterus examined.

`Cc1ncsc1-c1ccc(CNC(=O)[C@@H]2C[C@@H](O)CN2C(=O)[C@@H](NC(=O)COCCCOCCCOc2cc(F)c([C@@H]3c4[nH]c5ccccc5c4C[C@@H](C)N3CC(C)(C)F)c(F)c2)C(C)(C)C)cc1` [Compound 5] was tested, and the “effect of MG132 pre-treatment on ERα degradation” value ([1]; 10 µM MG132 1 h, then compound 7 h, MCF7) was “attenuated ERα degradation”, the “effect of excess acetylated-(S,R,S)-AHPC pre-treatment on ERα degradation” value ([1]; 10 µM VHL ligand, MCF7) was “partially reduced ERα degradation” and the “effect of excess (10 µM) 8 on ERα degradation” value ([1]; MCF7, 100 and 300 nM, 24 h) was “reduce this degradation to levels achieved in the presence of 8 alone”. The ERα degradation ([1]; MCF7, 100 and 300 nM, 24 h, western blot) was “near-complete degradation of ERα”, the “concentration giving maximal ERα degradation” value ([1]; MCF7, 24 hours, western blot) was at least 10 nM and the remaining activity at 1 µM ([1]; MCF7, read-out: ERa % of control) was 0.87%. The “Uterine weight normalised to body weight (% vehicle)” value ([2]; 30 mg/kg BID) was 100.01% and 167.09% and 162.21% and 134.02% and 93.04%, the “Uterine weight normalised to body weight (% vehicle)” value ([2]; 100 mg/kg BID) was 147.05% and 110.41% and 107.36% and 113.51% and 133.84% and the uterine weight ([2]; 30 and 100 mg/kg, immature female rat, 4 days) was “trend of increased uterine weight”. The “uterine epithelium morphology (H&E)” value ([2]; immature female rat, 4 days dosing) was “tall columnar uterine epithelium”.
